Several values for one entry are separate records, joined by “and”; a condition that tells them apart may be missing. Equal values may be shown once.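 A five-concentration, 48-hour dose response in 96-well plates underlies each endpoint, interpolated linearly between surrounding concentrations. GI50 marks 50% less growth. Definition used: TGI = concentration required for complete inhibition of growth.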 A value given as a limit tells only on which side of the number the result lay.

Broadly, the GI50 is the concentration at which growth is held to half of that of the control. For orientation: TGI means the concentration giving total growth inhibition.

Test systems include K-562 leukemia; ACHN renal; OVCAR-3 ovarian; NCI-H23 lung; SR leukemia; TK-10 renal; SK-OV-3 ovarian; MDA-MB-435; UO-31 renal; SNB-75 CNS.
Holding throughout (assay): DTP human tumour cell line panel, 48 h

Regarding `COc1ccc2c(c1)C(=O)c1c-2n(CCCn2ccnc2)c(=O)c2ccccc12`, the GI50 is 0.548 µM in the experiment on K-562 leukemia; 0.144 µM in the experiment on ACHN renal; 0.901 µM in the experiment on OVCAR-3 ovarian; 0.284 µM in the experiment on NCI-H23 lung; 0.0765 µM in the experiment on SR leukemia; 2.09 µM in the experiment on TK-10 renal. For the same compound, the GI50 was 0.595 µM in the experiment with SK-OV-3 ovarian, 0.67 µM in the experiment on MDA-MB-435, 0.0867 µM with UO-31 renal and 0.843 µM in the experiment on SNB-75 CNS. In addition, the TGI with K-562 leukemia was more than 100 µM; in the experiment with ACHN renal, 1.04 µM; in the experiment on NCI-H23 lung it was 7.86 µM; in the experiment on SR leukemia, 7.81 µM; in the experiment with TK-10 renal it was 15.4 µM; in the experiment on SK-OV-3 ovarian, 4.59 µM. The figures for the TGI with MDA-MB-435, in the experiment on UO-31 renal and with SNB-75 CNS were 3.24 µM, 0.476 µM and more than 22.4 µM, respectively.

On to `COc1ccc(C(C)c2cc3c(cc2OC)OCO3)cc1` (configuration not stated), for which the TGI was more than 57.6 µM in the experiment with K-562 leukemia; more than 100 µM in the experiment on ACHN renal; 0.598 µM in the experiment on OVCAR-3 ovarian; more than 21.5 µM with NCI-H23 lung; more than 5.04 µM with SR leukemia; more than 100 µM with TK-10 renal. Further, the TGI with SK-OV-3 ovarian was 27 µM; with MDA-MB-435, 0.214 µM; in the experiment on UO-31 renal, more than 100 µM; in the experiment on SNB-75 CNS, more than 100 µM.

With `CC(=O)OC1Oc2ccccc2-c2oc(=O)c(-c3cc4ccc(N(C)C)cc4oc3=O)cc21` (configuration not stated), the GI50 is 2.98 µM in the experiment with K-562 leukemia; 10.4 µM in the experiment on ACHN renal; 10.1 µM in the experiment with OVCAR-3 ovarian; 10.6 µM in the experiment with NCI-H23 lung; 1.75 µM in the experiment on SR leukemia; 5.4 µM with TK-10 renal. For the same compound, the GI50 is 13 µM in the experiment on SK-OV-3 ovarian, 13.3 µM with MDA-MB-435, 16.9 µM in the experiment on UO-31 renal and 9.9 µM with SNB-75 CNS. Moreover, the TGI with K-562 leukemia was more than 100 µM; in the experiment on ACHN renal, 23.2 µM; in the experiment on OVCAR-3 ovarian, 23.2 µM; in the experiment with NCI-H23 lung, 23.7 µM; in the experiment with SR leukemia, 14.5 µM; with TK-10 renal, 19.5 µM. Moreover, the TGI in the experiment with SK-OV-3 ovarian worked out at 45.5 µM; in the experiment on MDA-MB-435, 46.8 µM; in the experiment with UO-31 renal, 48.8 µM; in the experiment on SNB-75 CNS it was 25.4 µM.

As to `CCC1(O)C(=O)OCc2c1cc1n(c2=O)Cc2cc3ccc(C=O)cc3nc2-1` (configuration not stated), the GI50 is 1.39 µM with K-562 leukemia; 1.73 µM in the experiment on ACHN renal; 5.05 µM in the experiment with OVCAR-3 ovarian; 0.816 µM in the experiment on NCI-H23 lung; 0.0647 µM in the experiment on SR leukemia; 20.8 µM in the experiment with TK-10 renal. The GI50 in the experiment with SK-OV-3 ovarian is 7.45 µM; with MDA-MB-435 it was 5.9 µM; with UO-31 renal, 1.08 µM. In addition, the TGI was 50 µM and 66 µM in the experiment on K-562 leukemia; 38.9 µM and 5.51 µM with ACHN renal; 30.6 µM and 23.4 µM with OVCAR-3 ovarian; 2.71 µM and 16.7 µM in the experiment on NCI-H23 lung; 50 µM and > 100 µM in the experiment with TK-10 renal; 50 µM and 52.1 µM with SK-OV-3 ovarian. Also, the TGI is 31.2 µM and 35.7 µM with MDA-MB-435; 5.14 µM and 7.98 µM in the experiment on UO-31 renal; 30.8 µM and 14.5 µM with SNB-75 CNS.

Turning to `CN(C)CCNC(=O)c1cccc(C(=O)Nc2ccccc2)c1[N+](=O)[O-]`, the TGI in the experiment on K-562 leukemia, with ACHN renal, with OVCAR-3 ovarian, with NCI-H23 lung, in the experiment with SR leukemia and with TK-10 renal was more than 100 µM throughout. The total growth inhibition concentration (TGI) with SK-OV-3 ovarian, with MDA-MB-435, with UO-31 renal and in the experiment on SNB-75 CNS was more than 100 µM in each case.

For `COc1cc[nH]c1/C=C1\C(=O)Nc2ccccc21`, the GI50 in the experiment on K-562 leukemia was 16.9 µM; with ACHN renal, 3.5 µM; with OVCAR-3 ovarian, more than 21.5 µM; in the experiment with NCI-H23 lung it was 7.7 µM; in the experiment with SR leukemia, 6.44 µM; in the experiment with TK-10 renal, 6.71 µM. Also, the GI50 is 8.14 µM in the experiment on SK-OV-3 ovarian, 9.01 µM in the experiment with MDA-MB-435, 1.69 µM in the experiment on UO-31 renal and 5.9 µM with SNB-75 CNS. In addition, the TGI in the experiment with K-562 leukemia was more than 25 µM; in the experiment with ACHN renal, more than 25 µM; in the experiment with OVCAR-3 ovarian it was more than 25 µM; in the experiment on NCI-H23 lung, more than 25 µM; with SR leukemia, more than 22.7 µM; in the experiment on TK-10 renal it was more than 25 µM. Also, the TGI was more than 25 µM in the experiment on SK-OV-3 ovarian, more than 25 µM in the experiment on MDA-MB-435, 24.6 µM with UO-31 renal and more than 25 µM with SNB-75 CNS.

In the case of `CCCCN=C(N)c1ccc(OCCSCCOc2ccc(C(N)=NCCCC)cc2)cc1`, the GI50 was 2.3 µM in the experiment on K-562 leukemia; more than 100 µM in the experiment with ACHN renal; 4.97 µM with OVCAR-3 ovarian; 2.87 µM with NCI-H23 lung; 3.13 µM in the experiment with SR leukemia; 66.6 µM in the experiment with TK-10 renal. For the same compound, the GI50 in the experiment on SK-OV-3 ovarian is 2.54 µM; with MDA-MB-435, 3.35 µM; in the experiment with UO-31 renal, more than 100 µM; in the experiment with SNB-75 CNS it was 1.09 µM. The TGI was more than 100 µM in the experiment on K-562 leukemia; more than 100 µM in the experiment with ACHN renal; more than 100 µM in the experiment on OVCAR-3 ovarian; more than 100 µM in the experiment on NCI-H23 lung; 53.7 µM in the experiment on SR leukemia; more than 100 µM with TK-10 renal. The TGI with SK-OV-3 ovarian was more than 100 µM; in the experiment on MDA-MB-435 it was more than 100 µM; with UO-31 renal it was more than 100 µM; in the experiment with SNB-75 CNS, 16.2 µM.

Regarding `CCOC(=O)c1c(CN2CCN(c3ccccc3)CC2)n(-c2ccccc2)c2cc(Br)c(O)cc12`, the GI50 in the experiment on K-562 leukemia was 6.32 µM; in the experiment with ACHN renal it was 8.39 µM; in the experiment with OVCAR-3 ovarian, 13 µM; in the experiment on NCI-H23 lung it was 14.9 µM; in the experiment with SR leukemia, 3.82 µM; in the experiment on TK-10 renal, 25 µM. The GI50 was 34 µM in the experiment with SK-OV-3 ovarian, 11.3 µM in the experiment with MDA-MB-435, 8.99 µM with UO-31 renal and 17.7 µM with SNB-75 CNS. Further, the TGI in the experiment on K-562 leukemia was more than 100 µM; with ACHN renal it was 21.9 µM; with OVCAR-3 ovarian, 32.1 µM; with NCI-H23 lung, 38.3 µM; in the experiment on SR leukemia it was more than 100 µM; in the experiment on TK-10 renal, 58.9 µM. For the same compound, the TGI with SK-OV-3 ovarian was 80.9 µM; with MDA-MB-435, 34.4 µM; in the experiment on UO-31 renal, 23.1 µM; in the experiment with SNB-75 CNS, 90.5 µM.

Turning to `C[N+](C)(C)CC1CCCC(C[N+](C)(C)C)C1=O` (configuration not stated), the TGI stood at 2.58 µM with K-562 leukemia; 1.82 µM in the experiment on ACHN renal; 1.36 µM in the experiment on OVCAR-3 ovarian; 5.84 µM in the experiment on NCI-H23 lung; 0.479 µM in the experiment with SR leukemia; 4 µM in the experiment on TK-10 renal. Also, the TGI with SK-OV-3 ovarian is 26 µM; in the experiment on MDA-MB-435 it was 3.43 µM; with UO-31 renal, 7.68 µM; in the experiment with SNB-75 CNS it was 14.5 µM.

Take `c1ccc(C2=NNC3c4ccccc4-c4ccccc4N3C2)cc1` (configuration not stated): the TGI in the experiment with K-562 leukemia was 82 µM; with ACHN renal it was more than 100 µM; with OVCAR-3 ovarian it was more than 100 µM; with NCI-H23 lung, 67.8 µM; with SR leukemia it was 56.8 µM; with TK-10 renal, 91.7 µM. Besides, the TGI in the experiment on SK-OV-3 ovarian is more than 100 µM; in the experiment with MDA-MB-435, 68.1 µM; with UO-31 renal, more than 100 µM; in the experiment with SNB-75 CNS it was 66.1 µM.

The record behind these values is PubChem BioAssay (NCI).
